Where two headings read alike, the source gives them in different places.

Results on one compound are retold here after patent US20160220710A1, “COMPOSITIONS AND METHODS FOR DELIVERING PHARMACEUTICAL AGENTS” (THE REGENTS OF THE UNIVERSITY OF MICHIGAN, priority 2015, published 2016).

For data set [1] the following is noted: cited from earlier work.
The subject of data set [2] is TLR2, TLR4, TLR9 and MyD88. Nature of the data set: Western blot of TLR2, TLR4, TLR9 and MyD88 in RAW 264.7 cells. The following applies: 24 h incubation. The data set is classed as cell-based, murine. Here is the method: The murine macrophage cell line RAW 264.7 was purchased from ATCC (Manassas, Va.) and maintained in DMEM (Life Technologies, Carlsbad, Calif.) supplemented with 10% FBS. Soluble CFZ or isolated CLDIs were added at various concentrations in DMEM with 5% FBS to 6-well plates containing 4×10^5 cells/well and incubated (24 h at 37° C. and 5% CO2). Culture supernatants were harvested at 24 h, centrifuged (1500×g for 5 min), and stored (−20° C.) in frozen aliquots prior to analysis. For experiments involving TLR stimulation, cells were washed twice with pre-warmed DPBS to remove extracellular, non-phagocytosed CLDIs or CFZ, and then the cells were serum-starved for 18 h in DMEM. Supernatants were collected from unstimulated cells and cells stimulated with 200 ng/ml Pam3 or 1 μg/ml LPS in DMEM.
Background: A western blot detects proteins with antibodies after separation by electrophoresis.

Data set [3] can be described thus: Measurement of CFZ in tissues. The format is in vivo, mice. Here is the method:
Mice (4 week old, male C57Bl6) were purchased from the Jackson Laboratory (Bar Harbor, Me.) and acclimatized for 1 week in a specific-pathogen-free animal facility. Animal care was provided by the University of Michigan's Unit for Laboratory Animal Medicine (ULAM), and the experimental protocol was approved by the Committee on Use and Care of Animals. Clofazimine (CFZ) (C8895; Sigma-Aldrich, St. Louis, Mo.) was dissolved in sesame oil (Roland, China, or Shirakiku, Japan) to achieve a concentration of 3 mg/ml, which was mixed with Powdered Lab Diet 5001 (PMI International, Inc., St. Louis, Mo.) to produce a 0.03% drug to powdered feed (Baik et al., 2013, supra). […]
CFZ mass was measured as previously reported (Baik et al., 2012, supra; Venkatesan, et al., Arzneim. Forsch. 2007, 57, 472-474). […] CFZ mass was spectrophotometrically determined in methanol (λ=490 nm) and the concentration was calculated using a standard curve generated by spiking extracted tissue of the control (vehicle-only treated) mice tissue with known amounts of drug. The tissue-to-fat partition ratios were computed based on mass of drug in the various tissues relative to mass of drug in total body fat (units: dimensionless; calculated as [mg CFZ/g tissue]/[mg CFZ/g fat]). […] CFZ mass was measured in relation to the measured weight of the tissue or plasma volume.

In data set [4] the test system is carrageenan-based footpad-edema model. Nature of the data set: Carrageenan footpad edema model, 8-week orally fed mice. The data set is classed as in vivo. The following applies: 8 week oral treatment. On the procedure:
Experiments using the CFZ mice model were performed as published before (Baik et al., 2013, supra; Baik et al., 2012, supra; Keswani, R. K. et al. Mol. Pharm. 12, 2528-2536 (2015)). Mice (4 week old, male C57Bl/6) were purchased from the Jackson Laboratory (Bar Harbor, Me.) and acclimatised for 2 weeks in a specific-pathogen-free animal facility. All animal care was provided by the University of Michigan's Unit for Laboratory Animal Medicine (ULAM), and the experimental protocol was approved by the Committee on Use and Care of Animals. CFZ was dissolved in sesame oil (Roland, China, or Shirakiku, Japan) to achieve a concentration of 3 mg/ml, which was mixed with Powdered Lab Diet 5001 (PMI International, Inc., St. Louis, Mo.) to produce a 0.03% drug to powdered feed mix. A corresponding amount of sesame oil was mixed with chow for vehicle treatment (control).
Mice Carrageenan Footpad Edema Model. Carrageenan (C1867, Sigma-Aldrich®, 2% in PBS, 30 μl) was injected into the right footpad while PBS (30 μl) was injected in the left footpad as a negative control. For preliminary testing of CFZ as an anti-inflammatory agent, 8-week orally fed mice (CFZ and control) were used. For testing of CFZ in soluble and microcrystal form, naïve 4-5 week old mice were injected with carrageenan first followed by injection of CFZ-A (2 mM in DMSO, 30 μl), CLDIs (2 mM equivalent in PBS, 30 μl) or CFZ-HCl (2 mM equivalent in PBS, 30 μl) at 48 h post carrageenan injection. For control experiments, CFZ-A, CLDIs and CFZ-HCl were injected into the right footpads of naïve 4-5 week old mice. DMSO was used as a control for CFZ-A in the left footpad whereas PBS was used as a control for CLDIs and CFZ-HCl. Footpads were measured (length—l, width—w, three thicknesses—t1, t2, t3) at various time points using a digital vernier calliper and changes in the swelling based on volume of the foot was calculated as per above.
For orientation: In the carrageenan paw model, swelling and tenderness develop within hours.

`CC(C)/N=c1\cc2n(-c3ccc(Cl)cc3)c3ccccc3nc-2cc1Nc1ccc(Cl)cc1` [CFZ, 3-(p-chloroanilino)-10-(p-chlorophenyl)-2, 10-dihydro-2-isopropyliminophenazine]: the half-life entry is “in the order of hours to days” in data set [1] (after an acute dose, oral) and “in the order of weeks to months” in data set [1] (upon prolonged oral administration). In addition, the “TLR2 and TLR4 expression” value in data set [2] is “upregulated TLR2 and TLR4 expression”. For the same compound, the “CFZ mass retained in spleen” value in data set [3] (after the eight week washout period) is on record as “exceeded its combined mass retained in the other organs”. Also, in data set [3] (male, C57Bl6, mouse, adipose tissue / serum, 10 mg/kg per day, starting at three weeks of oral administration, read-out: CFZ concentration in adipose tissue relative to serum), the Kp is above 10000. For the same compound, the “decrease of inflammation vs control diet” value in data set [4] (t=4 h) is around 3 fold; in data set [4] (t=24 h) it was around 14 fold; in data set [4] (t=48 h), around 2 fold.
